Test results as given in ChEMBL document CHEMBL2413072, “Synthesis and in vitro anticancer studies of novel C-2 arylidene congeners of lantadenes” (2013).

Tests used:
Assay type in all cases: functional
NCI-H23 = assay: Growth inhibition of human NCI-H23 cells by sulforhodamine B assay
SK-MEL-28 [1] = assay: Growth inhibition of human SK-MEL-28 cells assessed as cell growth at 10^-6 M by sulforhodamine B assay; settings: read-out: Activity
SK-MEL-28 [2] = assay: Growth inhibition of human SK-MEL-28 cells assessed as cell growth at 10^-8 M by sulforhodamine B assay; settings: read-out: Activity
IGROV-1 [3] = assay: Growth inhibition of human IGROV1 cells assessed as cell growth at 10^-4 M by sulforhodamine B assay; settings: read-out: Activity
UACC-257 [4] = assay: Growth inhibition of human UACC257 cells assessed as cell growth at 10^-7 M by sulforhodamine B assay; settings: read-out: Activity
PC-3 = assay: Growth inhibition of human PC3 cells by sulforhodamine B assay
SF-295 [5] = assay: Growth inhibition of human SF295 cells assessed as cell growth at 10^-6 M by sulforhodamine B assay; settings: read-out: Activity
M14 = assay: Growth inhibition of human M14 cells assessed as cell growth at 10^-8 M by sulforhodamine B assay; settings: read-out: Activity
DU-145 = assay: Growth inhibition of human DU145 cells assessed as cell growth at 10^-7 M by sulforhodamine B assay; settings: read-out: Activity
HCT-15 = assay: Growth inhibition of human HCT15 cells assessed as cell growth at 10^-6 M by sulforhodamine B assay; settings: read-out: Activity
CCRF-CEM [6] = assay: Growth inhibition of human CCRF-CEM cells assessed as cell growth at 10^-4 M by sulforhodamine B assay; settings: read-out: Activity
SF-295 [7] = assay: Growth inhibition of human SF295 cells assessed as cell growth at 10^-4 M by sulforhodamine B assay; settings: read-out: Activity
SK-MEL-2 [8] = assay: Growth inhibition of human SK-MEL-2 cells assessed as cell growth at 10^-8 M by sulforhodamine B assay; settings: read-out: Activity
A498 [9] = assay: Growth inhibition of human A498 cells assessed as cell growth at 10^-4 M by sulforhodamine B assay; settings: read-out: Activity
BT-549 [10] = assay: Growth inhibition of human BT549 cells assessed as cell growth at 10^-7 M by sulforhodamine B assay; settings: read-out: Activity
SF-539 = assay: Growth inhibition of human SF539 cells assessed as cell growth at 10^-7 M by sulforhodamine B assay; settings: read-out: Activity
SNB-75 = assay: Growth inhibition of human SNB75 cells by sulforhodamine B assay
UACC-257 [11] = assay: Growth inhibition of human UACC257 cells assessed as cell growth at 10^-8 M by sulforhodamine B assay; settings: read-out: Activity
HOP-92 = assay: Growth inhibition of human HOP92 cells assessed as cell growth at 10^-8 M by sulforhodamine B assay; settings: read-out: Activity
NCI-H322M = assay: Growth inhibition of human NCI-H322M cells by sulforhodamine B assay
BT-549 [12] = assay: Growth inhibition of human BT549 cells by sulforhodamine B assay
UACC-62 = assay: Growth inhibition of human UACC62 cells assessed as cell growth at 10^-7 M by sulforhodamine B assay; settings: read-out: Activity
OVCAR-3 = assay: Growth inhibition of human OVCAR3 cells by sulforhodamine B assay
KM12 = assay: Growth inhibition of human KM12 cells by sulforhodamine B assay
CCRF-CEM [13] = assay: Growth inhibition of human CCRF-CEM cells by sulforhodamine B assay
HT-29 = assay: Growth inhibition of human HT-29 cells assessed as cell growth at 10^-4 M by sulforhodamine B assay; settings: read-out: Activity
SK-OV-3 = assay: Growth inhibition of human SKOV3 cells assessed as cell growth at 10^-8 M by sulforhodamine B assay; settings: read-out: Activity
OVCAR-5 = assay: Growth inhibition of human OVCAR5 cells assessed as cell growth at 10^-7 M by sulforhodamine B assay; settings: read-out: Activity
A498 [14] = assay: Growth inhibition of human A498 cells assessed as cell growth at 10^-7 M by sulforhodamine B assay; settings: read-out: Activity
IGROV-1 [15] = assay: Growth inhibition of human IGROV1 cells assessed as cell growth at 10^-7 M by sulforhodamine B assay; settings: read-out: Activity
786-0 = assay: Growth inhibition of human 786-0 cells assessed as cell growth at 10^-6 M by sulforhodamine B assay; settings: read-out: Activity
SK-MEL-28 [16] = assay: Growth inhibition of human SK-MEL-28 cells assessed as cell growth at 10^-7 M by sulforhodamine B assay; settings: read-out: Activity
A549 = assay: Growth inhibition of human A549/ATCC cells assessed as cell growth at 10^-7 M by sulforhodamine B assay; settings: read-out: Activity
U-251 = assay: Growth inhibition of human U251 cells assessed as cell growth at 10^-8 M by sulforhodamine B assay; settings: read-out: Activity
CCRF-CEM [17] = assay: Growth inhibition of human CCRF-CEM cells assessed as cell growth at 10^-8 M by sulforhodamine B assay; settings: read-out: Activity
CAKI-1 = assay: Growth inhibition of human CAKI-1 cells by sulforhodamine B assay
SK-MEL-2 [18] = assay: Growth inhibition of human SK-MEL-2 cells assessed as cell growth at 10^-6 M by sulforhodamine B assay; settings: read-out: Activity
COLO 205 = assay: Growth inhibition of human COLO205 cells assessed as cell growth at 10^-7 M by sulforhodamine B assay; settings: read-out: Activity
OVCAR-4 = assay: Growth inhibition of human OVCAR4 cells assessed as cell growth at 10^-4 M by sulforhodamine B assay; settings: read-out: Activity
[19] = read-out: LC50 (the source's name)
[20] = read-out: pLC50 (the source's name) (converted)

## CC(C)=CC(=O)O[C@@H]1CC(C)(C)C[C@H]2C3=CC[C@@H]4[C@@]5(C)CCC(=O)C(C)(C)[C@@H]5CC[C@@]4(C)[C@]3(C)CC[C@@]12C(=O)O
NCI-H23; read-out: GI50
  GI50: 3.96 µM
NCI-H23; [19]
  CC50: > 100 µM
NCI-H23; read-out: TGI
  TGI: 51.9 µM
NCI-H23; read-out: pGI50 (converted)
  GI50: 3.98 µM
NCI-H23; [20]
  CC50: > 100 µM
NCI-H23; read-out: pTGI (converted)
  TGI: 52.5 µM
SK-MEL-28 [1]
  growth at 1 µM: 103%
SK-MEL-28 [2]
  growth at 0.01 µM: 108%
IGROV-1 [3]
  growth at 100 µM: -23%
UACC-257 [4]
  growth at 0.1 µM: 93%
PC-3; read-out: GI50
  GI50: 1.55 µM
PC-3; [19]
  CC50: > 100 µM
PC-3; read-out: TGI
  TGI: 89.1 µM
PC-3; read-out: pGI50 (converted)
  GI50: 1.55 µM
PC-3; [20]
  CC50: > 100 µM
PC-3; read-out: pTGI (converted)
  TGI: 89.1 µM
SF-295 [5]
  growth at 1 µM: 63%
M14
  growth at 0.01 µM: 98%
DU-145
  growth at 0.1 µM: 105%
HCT-15
  growth at 1 µM: 55%
CCRF-CEM [6]
  growth at 100 µM: -14%
SF-295 [7]
  growth at 100 µM: -59%
SK-MEL-2 [8]
  growth at 0.01 µM: 94%
A498 [9]
  growth at 100 µM: -44%
BT-549 [10]
  growth at 0.1 µM: 109%
SF-539
  growth at 0.1 µM: 91%
SNB-75; read-out: GI50
  GI50: 7.71 µM
SNB-75; [19]
  CC50: > 100 µM
SNB-75; read-out: TGI
  TGI: 39.2 µM
SNB-75; read-out: pGI50 (converted)
  GI50: 7.76 µM
SNB-75; [20]
  CC50: > 100 µM
SNB-75; read-out: pTGI (converted)
  TGI: 38.9 µM
UACC-257 [11]
  growth at 0.01 µM: 88%
HOP-92
  growth at 0.01 µM: 97%
NCI-H322M; read-out: GI50
  GI50: 2.87 µM
NCI-H322M; read-out: LC50
  LC50 (50% lethal concentration): > 100 µM
NCI-H322M; read-out: TGI
  TGI: 19.9 µM
NCI-H322M; read-out: pGI50 (converted)
  GI50: 2.88 µM
NCI-H322M; read-out: pLC50 (converted)
  LC50 (50% lethal concentration): > 100 µM
NCI-H322M; read-out: pTGI (converted)
  TGI: 20 µM
BT-549 [12]; read-out: GI50
  GI50: 4.79 µM
BT-549 [12]; [19]
  CC50: > 100 µM
BT-549 [12]; read-out: TGI
  TGI: 25 µM
BT-549 [12]; read-out: pGI50 (converted)
  GI50: 4.79 µM
BT-549 [12]; [20]
  CC50: > 100 µM
BT-549 [12]; read-out: pTGI (converted)
  TGI: 25.1 µM
UACC-62
  growth at 0.1 µM: 97%
OVCAR-3; read-out: GI50
  GI50: 4.08 µM
OVCAR-3; [19]
  CC50: 59.1 µM
OVCAR-3; read-out: TGI
  TGI: 19 µM
OVCAR-3; read-out: pGI50 (converted)
  GI50: 4.07 µM
OVCAR-3; [20]
  CC50: 58.9 µM
OVCAR-3; read-out: pTGI (converted)
  TGI: 19.1 µM
KM12; read-out: GI50
  GI50: 0.879 µM
KM12; read-out: LC50
  LC50 (50% net cell kill): 59.3 µM
KM12; read-out: TGI
  TGI: 15.3 µM
KM12; read-out: pGI50 (converted)
  GI50: 0.871 µM
KM12; read-out: pLC50 (converted)
  LC50 (50% net cell kill): 58.9 µM
KM12; read-out: pTGI (converted)
  TGI: 15.5 µM
CCRF-CEM [13]; read-out: GI50
  GI50: 2.14 µM
CCRF-CEM [13]; [19]
  CC50: > 100 µM
CCRF-CEM [13]; read-out: TGI
  TGI: 22.1 µM
CCRF-CEM [13]; read-out: pGI50 (converted)
  GI50: 2.14 µM
CCRF-CEM [13]; [20]
  CC50: > 100 µM
CCRF-CEM [13]; read-out: pTGI (converted)
  TGI: 22.4 µM
HT-29
  growth at 100 µM: -27%
SK-OV-3
  growth at 0.01 µM: 106%
OVCAR-5
  growth at 0.1 µM: 91%
A498 [14]
  growth at 0.1 µM: 80%
IGROV-1 [15]
  growth at 0.1 µM: 108%
786-0
  growth at 1 µM: 92%
SK-MEL-28 [16]
  growth at 0.1 µM: 99%
A549
  growth at 0.1 µM: 88%
U-251
  growth at 0.01 µM: 92%
CCRF-CEM [17]
  growth at 0.01 µM: 104%
CAKI-1; read-out: GI50
  GI50: 3.84 µM
CAKI-1; [19]
  CC50: > 100 µM
CAKI-1; read-out: TGI
  TGI: 84.8 µM
CAKI-1; read-out: pGI50 (converted)
  GI50: 3.8 µM
CAKI-1; [20]
  CC50: > 100 µM
CAKI-1; read-out: pTGI (converted)
  TGI: 85.1 µM
SK-MEL-2 [18]
  growth at 1 µM: 85%
COLO 205
  growth at 0.1 µM: 103%
OVCAR-4
  growth at 100 µM: 10%
